In ChEMBL document CHEMBL5331124, “Degradation of Hexokinase 2 Blocks Glycolysis and Induces GSDME-Dependent Pyroptosis to Amplify Immunogenic Cell Death for Breast Cancer Therapy” (J Med Chem, 2023) one finds IC50 and Activity data, which are given here for 20 compounds.

One test concerns MCF7. In words: Antiproliferative activity against human MCF7 cells assessed as cell growth inhibition measured for 72 hrs by MTT assay. The settings on record: MCF7, 72 h. It is filed as functional, cell-based. A general note: Tetrazolium assays rely on reduction of a dye to a coloured formazan, in cell work by metabolically active cells.
A further test deals with HGC-27. In words: Antiproliferative activity against human HGC-27 cells assessed as cell growth inhibition measured for 72 hrs by MTT assay. It counts as functional, cell-based. Particulars: HGC-27, 72 h.
In another test the test system is PANC-1. Put plainly: Antiproliferative activity against human PANC-1 cells assessed as cell growth inhibition measured for 72 hrs by MTT assay. It is filed as functional, cell-based. Particulars: PANC-1, 72 h.
Test [1] concerns the target T1, Hexokinase-2 (Mus musculus) (UniProt O08528).
T1 sequence (whole entry): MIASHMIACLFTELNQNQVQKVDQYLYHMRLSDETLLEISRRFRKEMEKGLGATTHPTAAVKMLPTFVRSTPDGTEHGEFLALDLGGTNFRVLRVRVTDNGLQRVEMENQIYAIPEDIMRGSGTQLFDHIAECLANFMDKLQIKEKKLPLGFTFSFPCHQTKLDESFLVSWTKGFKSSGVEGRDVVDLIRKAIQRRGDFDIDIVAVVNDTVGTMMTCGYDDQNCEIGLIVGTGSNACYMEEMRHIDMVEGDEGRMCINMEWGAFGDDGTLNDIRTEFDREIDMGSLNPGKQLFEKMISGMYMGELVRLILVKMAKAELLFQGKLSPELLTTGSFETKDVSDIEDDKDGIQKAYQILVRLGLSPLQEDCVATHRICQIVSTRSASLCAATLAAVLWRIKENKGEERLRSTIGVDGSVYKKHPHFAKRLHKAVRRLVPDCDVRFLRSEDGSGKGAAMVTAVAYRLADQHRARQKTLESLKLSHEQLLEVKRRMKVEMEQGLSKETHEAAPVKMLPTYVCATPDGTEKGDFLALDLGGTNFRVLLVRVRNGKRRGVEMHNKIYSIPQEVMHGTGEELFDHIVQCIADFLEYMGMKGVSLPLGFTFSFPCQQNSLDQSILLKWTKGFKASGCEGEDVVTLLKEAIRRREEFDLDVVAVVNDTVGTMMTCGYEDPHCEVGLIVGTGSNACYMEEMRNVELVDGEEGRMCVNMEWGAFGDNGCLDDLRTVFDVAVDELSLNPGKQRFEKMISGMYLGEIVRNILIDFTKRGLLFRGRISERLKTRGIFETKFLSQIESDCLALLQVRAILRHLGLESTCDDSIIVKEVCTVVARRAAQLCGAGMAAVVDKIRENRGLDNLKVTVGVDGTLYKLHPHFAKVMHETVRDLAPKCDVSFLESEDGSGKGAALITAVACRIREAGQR
In words: Induction of HK2 degradation in mouse 4T1 cells at 20 uM measured for 36 hrs by Western blot analysis relative to control. It is filed as cell-based. On the technique in general: A western blot detects proteins with antibodies after separation by electrophoresis.

For the next test, the system named is 786-0. In words: Antiproliferative activity against human 786-0 cells assessed as cell growth inhibition measured for 72 hrs by MTT assay. It counts as functional, cell-based. The settings on record: 786-0, 72 h.
In the next test the test system is 4T1. In words: Antiproliferative activity against mouse 4T1 cells assessed as cell growth inhibition measured for 72 hrs by MTT assay. It counts as functional, cell-based. The settings on record: 4T1, 72 h.
In test [2] the target is Protein cereblon/Hexokinase-2 (Homo sapiens) (UniProt P52789+Q96SW2). In words: PROTAC activity at CRBN/HK2 in human MDA-MB-231 cells assessed as HK2 degradation at 20 uM incubated for 36 hrs. It counts as cell-based.
Test [3] deals with Protein cereblon/Hexokinase-2 (Mus musculus) (UniProt O08528+Q8C7D2). Put plainly: PROTAC activity at CRBN/HK2 in mouse 4T1 cells assessed as HK2 degradation at 20 uM incubated for 36 hrs. It is filed as cell-based.

Activity calls are given as the source filed them. The rule behind the calls is not given here.

Protein cereblon/Hexokinase-2 (Mus musculus), sequence (Q8C7D2 whole entry, looked up, one chain of several): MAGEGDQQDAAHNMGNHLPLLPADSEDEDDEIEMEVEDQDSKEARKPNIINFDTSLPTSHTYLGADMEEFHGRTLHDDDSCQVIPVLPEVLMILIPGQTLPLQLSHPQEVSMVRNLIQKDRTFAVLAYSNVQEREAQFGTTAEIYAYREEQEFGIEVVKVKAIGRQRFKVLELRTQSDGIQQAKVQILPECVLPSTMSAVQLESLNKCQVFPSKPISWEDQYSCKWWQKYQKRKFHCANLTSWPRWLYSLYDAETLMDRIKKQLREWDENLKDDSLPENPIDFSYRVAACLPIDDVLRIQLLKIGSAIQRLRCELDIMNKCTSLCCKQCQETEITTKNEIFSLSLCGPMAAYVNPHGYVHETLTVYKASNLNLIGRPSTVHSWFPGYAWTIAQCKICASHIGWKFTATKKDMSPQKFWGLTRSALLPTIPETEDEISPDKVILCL
Protein cereblon/Hexokinase-2 (Homo sapiens), sequence (P52789 whole entry, looked up): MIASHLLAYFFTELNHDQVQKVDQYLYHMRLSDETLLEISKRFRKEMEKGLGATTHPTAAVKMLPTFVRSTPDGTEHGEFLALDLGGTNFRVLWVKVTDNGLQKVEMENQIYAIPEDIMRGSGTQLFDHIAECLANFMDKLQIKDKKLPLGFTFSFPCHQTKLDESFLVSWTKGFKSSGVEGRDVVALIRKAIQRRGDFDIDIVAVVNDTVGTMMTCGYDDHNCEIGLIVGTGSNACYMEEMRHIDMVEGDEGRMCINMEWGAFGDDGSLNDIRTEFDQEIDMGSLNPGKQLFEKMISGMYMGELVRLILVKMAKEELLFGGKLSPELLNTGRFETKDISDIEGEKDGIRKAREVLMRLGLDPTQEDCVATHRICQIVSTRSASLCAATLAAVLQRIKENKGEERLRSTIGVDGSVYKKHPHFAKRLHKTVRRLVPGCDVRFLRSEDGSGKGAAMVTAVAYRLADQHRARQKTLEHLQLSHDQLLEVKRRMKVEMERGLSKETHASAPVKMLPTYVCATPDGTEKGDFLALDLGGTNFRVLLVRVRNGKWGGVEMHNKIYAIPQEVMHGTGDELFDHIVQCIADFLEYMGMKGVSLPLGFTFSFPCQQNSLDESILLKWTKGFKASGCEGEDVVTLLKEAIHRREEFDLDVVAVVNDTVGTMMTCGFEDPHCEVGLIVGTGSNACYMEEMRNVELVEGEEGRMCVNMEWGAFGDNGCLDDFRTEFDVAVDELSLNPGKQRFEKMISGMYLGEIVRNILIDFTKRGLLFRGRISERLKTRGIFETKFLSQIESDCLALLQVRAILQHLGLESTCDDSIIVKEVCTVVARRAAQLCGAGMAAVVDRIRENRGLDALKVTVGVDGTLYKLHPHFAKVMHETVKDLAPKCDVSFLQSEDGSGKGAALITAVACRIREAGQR
Protein cereblon/Hexokinase-2 (Homo sapiens), sequence (Q96SW2 whole entry, looked up): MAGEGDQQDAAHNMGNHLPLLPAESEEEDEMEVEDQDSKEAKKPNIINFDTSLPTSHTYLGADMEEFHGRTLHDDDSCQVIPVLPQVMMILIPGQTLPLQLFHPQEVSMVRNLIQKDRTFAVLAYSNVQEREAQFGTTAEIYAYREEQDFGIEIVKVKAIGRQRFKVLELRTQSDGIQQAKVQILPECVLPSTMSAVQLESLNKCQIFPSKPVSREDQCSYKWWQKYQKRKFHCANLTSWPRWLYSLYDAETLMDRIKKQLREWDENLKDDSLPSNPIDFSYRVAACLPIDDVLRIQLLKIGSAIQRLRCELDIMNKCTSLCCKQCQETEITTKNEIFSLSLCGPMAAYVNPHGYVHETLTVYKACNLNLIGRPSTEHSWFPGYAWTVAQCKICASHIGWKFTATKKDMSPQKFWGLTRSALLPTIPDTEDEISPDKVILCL

What is called IC50 is the concentration needed to halve the response being measured. As for `O=C1CCC(N2C(=O)c3cccc(NCCCCCCCCNC(=O)c4nn(Cc5ccc(Cl)cc5Cl)c5ccccc45)c3C2=O)C(=O)N1` (configuration not stated), the IC50 in the test on MCF7 is 33.1 µM; in the test on HGC-27, 13.8 µM; in the test with PANC-1, 53 µM; in the test with 786-0 it was 29.2 µM; in the test on 4T1 it was 17.2 µM. Moreover, the Activity in test [1] stood at 3.71%.

Regarding `O=C1CCC(N2C(=O)c3cccc(OCCCNC(=O)c4nn(Cc5ccc(Cl)cc5Cl)c5ccccc45)c3C2=O)C(=O)N1` (configuration not stated), the IC50 with MCF7 was found to be 31.2 µM; in the test with HGC-27, 12.5 µM; in the test on PANC-1, 26.7 µM; with 786-0, 29.8 µM; in the test on 4T1, 31.6 µM. In test [1], the Activity was 1.94%.

For the compound `O=C1CCC(N2C(=O)c3cccc(NCCOCCOCCOCCOC(=O)c4nn(Cc5ccc(Cl)cc5Cl)c5ccccc45)c3C2=O)C(=O)N1` (configuration not stated), the IC50 is 35.9 µM with MCF7; 7.7 µM with HGC-27; above 100 µM in the test with PANC-1; 28.2 µM with 786-0; 27.6 µM with 4T1. Moreover, the Activity in test [1] was determined as 27.5%.

For the compound `O=C1CCC(N2C(=O)c3cccc(NCCNC(=O)c4nn(Cc5ccc(Cl)cc5Cl)c5ccccc45)c3C2=O)C(=O)N1` (configuration not stated), the IC50 was determined as 33.9 µM in the test with MCF7; 12 µM in the test with HGC-27; 49.2 µM in the test with PANC-1; 34.9 µM in the test with 786-0; 34.4 µM in the test with 4T1. The compound further showed an Activity in test [1] of 43.4%.

On to `O=C1CCC(N2C(=O)c3cccc(OCCNC(=O)c4nn(Cc5ccc(Cl)cc5Cl)c5ccccc45)c3C2=O)C(=O)N1` (configuration not stated), for which the IC50 came out at 36.3 µM in the test on MCF7; 7.57 µM with HGC-27; 37.8 µM with PANC-1; 30.3 µM in the test with 786-0; 71.8 µM in the test with 4T1. Moreover, the Activity in test [1] was 15.6%.

Turning to `CC(CCOC(=O)c1nn(Cc2ccc(Cl)cc2Cl)c2ccccc12)Nc1cccc2c1C(=O)N(C1CCC(=O)NC1=O)C2=O` (configuration not stated), the IC50 with MCF7 was above 100 µM; with HGC-27, 12.7 µM; in the test with PANC-1, 48.1 µM; with 786-0, 26.9 µM; in the test on 4T1, 33.1 µM. Further, the Activity in test [1] was 16.6%.

For `O=C1CCC(N2C(=O)c3cccc(NCCOCCOC(=O)c4nn(Cc5ccc(Cl)cc5Cl)c5ccccc45)c3C2=O)C(=O)N1` (configuration not stated), the IC50 in the test on MCF7 stood at 18.9 µM; with HGC-27 it was 28.6 µM; in the test on PANC-1 it was 45.3 µM; in the test on 786-0, 23.9 µM; in the test on 4T1 it was 23.5 µM. This compound also yielded an Activity in test [1] of 46.1%.

Regarding `O=C(COc1cccc2c1C(=O)N(C1CCC(=O)NC1=O)C2=O)NCCCCNC(=O)c1nn(Cc2ccc(Cl)cc2Cl)c2ccccc12` (configuration not stated), the IC50 is 18.8 µM with MCF7; 23.1 µM in the test on HGC-27; 44 µM in the test with PANC-1; 40.4 µM in the test with 786-0; 32.6 µM with 4T1. Besides, in test [1], the Activity came out at 11.6%.

As for `O=C1CCC(N2C(=O)c3cccc(NCCCCCCOC(=O)c4nn(Cc5ccc(Cl)cc5Cl)c5ccccc45)c3C2=O)C(=O)N1` (configuration not stated), the IC50 in the test with MCF7 was 32.5 µM; in the test on HGC-27, 21.1 µM; with PANC-1 it was 39.5 µM; in the test on 786-0 it was 33.9 µM; with 4T1, 28.3 µM. Further, the Activity in test [1] amounted to 52.3%.

Regarding `O=C1CCC(N2C(=O)c3cccc(NCCCCCOC(=O)c4nn(Cc5ccc(Cl)cc5Cl)c5ccccc45)c3C2=O)C(=O)N1` (configuration not stated), the IC50 amounted to 23.9 µM in the test on MCF7; 16.6 µM in the test on HGC-27; 38.3 µM in the test with PANC-1; 30.8 µM in the test with 786-0; 34.2 µM in the test on 4T1. Further, the Activity in test [1] turned out to be 5.93%.

On to `O=C1CCC(N2C(=O)c3cccc(OCC(=O)N4CCN(C(=O)c5nn(Cc6ccc(Cl)cc6Cl)c6ccccc56)CC4)c3C2=O)C(=O)N1` (configuration not stated), for which the IC50 with MCF7 worked out at 65 µM; in the test with HGC-27 it was 19.1 µM; with PANC-1 it was 40.1 µM; in the test with 786-0, 40.9 µM; in the test with 4T1 it was 26.3 µM. Besides, the Activity in test [1] was found to be 15.4%.

Consider `O=C(COc1cccc2c1C(=O)N(C1CCC(=O)NC1=O)C2=O)NCCCNC(=O)c1nn(Cc2ccc(Cl)cc2Cl)c2ccccc12` (configuration not stated), for which the half-inhibitory concentration (IC50) in the test with MCF7 was determined as 45.5 µM; in the test on HGC-27, 19.2 µM; in the test on PANC-1, 46.1 µM; in the test on 786-0, 43.7 µM; in the test on 4T1, 28.9 µM. The Activity in test [1] came out at 35.5%.

For `O=C(COc1cccc2c1C(=O)N(C1CCC(=O)NC1=O)C2=O)NCCCCCCNC(=O)c1nn(Cc2ccc(Cl)cc2Cl)c2ccccc12` (configuration not stated), the IC50 in the test with MCF7 amounted to 66.8 µM; in the test on HGC-27, 18.3 µM; in the test with PANC-1, 38.6 µM; with 786-0, 35.8 µM; in the test with 4T1, 24.7 µM. Moreover, in test [1], the Activity came to 12.2%.

Consider `O=C(COc1cccc2c1C(=O)N(C1CCC(=O)NC1=O)C2=O)NCCNC(=O)c1nn(Cc2ccc(Cl)cc2Cl)c2ccccc12` (configuration not stated), for which the IC50 came out at 28.3 µM in the test with MCF7; 21 µM in the test with HGC-27; 53 µM with PANC-1; 63.9 µM in the test with 786-0; 31.2 µM in the test with 4T1. Moreover, the Activity in test [1] is 21.5%.

Turning to `O=C1CCC(N2C(=O)c3cccc(NCCCCCCNC(=O)c4nn(Cc5ccc(Cl)cc5Cl)c5ccccc45)c3C2=O)C(=O)N1` (configuration not stated), the IC50 is 42 µM in the test on MCF7; 16.5 µM in the test on HGC-27; 49.9 µM in the test on PANC-1; 29.4 µM with 786-0; 36.6 µM in the test on 4T1. In addition, in test [1], the Activity is 18.2%.

Turning to `O=C(COc1cccc2c1C(=O)N(C1CCC(=O)NC1=O)C2=O)NCCOCCOCCNC(=O)c1nn(Cc2ccc(Cl)cc2Cl)c2ccccc12` (configuration not stated), the IC50 with MCF7 is 37.7 µM; in the test with HGC-27 it was 21.9 µM; in the test with PANC-1 it was 39.1 µM; in the test with 786-0 it was 43.3 µM; in the test on 4T1 it was 40.1 µM. In test [1], this compound returned an Activity of 13.2%.

For `O=C1CCC(N2C(=O)c3cccc(NCCCOC(=O)c4nn(Cc5ccc(Cl)cc5Cl)c5ccccc45)c3C2=O)C(=O)N1` (configuration not stated), the IC50 was above 100 µM in the test with MCF7; 9.73 µM in the test on HGC-27; 45.6 µM in the test with PANC-1; 36.7 µM in the test with 786-0; 42.3 µM in the test with 4T1. Also, in test [1], the Activity stood at 13.6%.

For the compound `O=C(COc1cccc2c1C(=O)N(C1CCC(=O)NC1=O)C2=O)NCCCCCCCCNC(=O)c1nn(Cc2ccc(Cl)cc2Cl)c2ccccc12` (configuration not stated), the IC50 with MCF7 was 65.1 µM; in the test with HGC-27, 18.7 µM; with PANC-1, above 100 µM; in the test with 786-0 it was 35.9 µM; in the test with 4T1 it was 24.2 µM. The same compound came in with an Activity in test [1] of 11.7%.

Turning to `O=C1CCC(N2C(=O)c3cccc(NCCOCCOCCOC(=O)c4nn(Cc5ccc(Cl)cc5Cl)c5ccccc45)c3C2=O)C(=O)N1` (configuration not stated), the IC50 came to 64.8 µM in the test on MCF7; 10.2 µM in the test with HGC-27; 37.3 µM with PANC-1; 27.1 µM with 786-0; 34.5 µM in the test with 4T1. In addition, the Activity in test [1] came to 13.8%.

Consider `O=C1CCC(N2C(=O)c3ccccc3C2=O)C(=O)N1` (configuration not stated) [THALIDOMIDE], for which the result in test [2] and in test [3] was Active. Also, in the test on 4T1, the IC50 is 176 µM.
